Results from US9572877B2 (priority 2010, dated 2017).

What was measured:
[1] = tested on: Human MDDCs (Monocyte-derived DC cells); test: Maturation of dendritic cells: surface marker expression by flow cytometry, human MDDCs; format: cell-based; conditions: 1 μg/ml, 37° C., 24 hrs
Procedure: (§1) Approximately 80 ml of blood from healthy human donors was collected and isolated peripheral blood mononuclear cells (PBMCs) with Ficoll-Paque™ gradient separation method. Monocytes were isolated from PBMCs using anti-CD14 microbeads (MACS system), seeded at […] in a 24-well plate with RPMI medium contained 10% FBS, IL-4 and GM-CSF and cultured to obtain human MDDCs. Bone marrow cells were isolated from male BALB/c mouse and cultured with medium contained IL-4 and GM-CSF for 6 days to obtain BMDCs. Then, at 7 days, CD11c^+ cells were isolated using anti-CD11c-coated magnetic beads.
(§2) Human MDDCs (Monocyte-derived DC cells) and mouse BMDC (Bone marrow DCs) were isolated with the method described above, treated respectively with LPS, MPL and CIA05 with 1 μg/ml of concentration and incubated at 37° C. for 24 hrs. After incubation, CD40, CD80 and CD86 were verified in mouse BMDCs surface, and HLA-DR, CD80 and CD86 were verified in human MDDCs by flow cytometry, respectively. […] Therefore, CIA05 may solve these problems.

[2] = tested on: mouse BMDC (Bone marrow DCs); test: Maturation of dendritic cells: surface marker expression by flow cytometry, mouse BMDC; format: cell-based; conditions: mouse BMDCs, 1 μg/ml, 37° C., 24 hrs
Procedure: as §1, §2

Row | Substance | expression of MDDCs surface marker HLA-DR, CD80 and CD86 [1] | expression of DCs surface marker CD40, CD80 and CD86 [2]
1 | Monophosphoryl lipid A [MPL] | limited in human | expressed with similar distribution
2 | lipopolysaccharide [LPS] |  | expressed with similar distribution
